Source: publication PMC8042770, “Odorant Receptors for Detecting Flowering Plant Cues Are Functionally Conserved across Moths and Butterflies” (Molecular Biology and Evolution, 2020)
Read-outs that look alike come from different tables or passages of the source.

What was measured:
[1] = system: H. armigera moth antennae; experiment: Electroantennography (EAG), wild-type vs HarmOR42 knock-out moths; assay type: in vivo, Helicoverpa armigera; conditions: single odorants, 1 μg
Description: We next conducted a loss-of-function study by generating a HarmOR42-lacking H. armigera strain by CRISPR/Cas9 targeting the first coding exon. Homozygous mutants were obtained with a large segment deletion of 203 bp and a 6-bp nonhomologous insertion in the genome (fig. 6B), introducing a premature stop codon in the coding sequence. […] The most likely hypothesis is that HarmOR42 is not the major receptor for sensing this compound in H. armigera. As a control, we tested the response of male moths to the sex pheromone component Z11-16: Ald that is not a ligand of HarmOR42. As expected, we observed no difference between the EAG responses of mutant and wild-type moths to this compound.
The antennae of 2- to 3-day-old virgin male and female moths were cut at the base of the flagellum. After removing the tip, one antenna was inserted between two glass electrodes filled with 0.1 M KCl solution. In each test, a 10-μl solution of each odorant was added onto a piece of filter paper (0.5 cm × 0.5 cm) and then inserted into a Pasteur pipette. About 100 ng/μl stock solutions of individual odorants and different doses of the mixture IAC were prepared with paraffin oil. A continuous airflow of 30 ml/s was produced by a stimulus controller (CS-55, Syntech, Kirchzarten, Germany). Odor stimulation was controlled by a puff of purified air (0.2 s at 10 ml/s airflow) from the CS-55. EAG signals were amplified with a 10× AC/DC headstage preamplifier (Syntech) and further acquired with an Intelligent Data Acquisition Controller (IDAC-4-USB, Syntech) ([Cao et al. 2016]). The signals were recorded, monitored, and analyzed using Syntech EAG-software (Syntech, Germany). The EAG response values for each compound were calculated by subtracting the value of the same antennae corresponding to a solvent blank of paraffin oil.

HarmOR59 = HarmOR59 (Helicoverpa armigera, UniProt A0A7T3KAU6); experiment: Xenopus oocyte two-electrode voltage clamp, HarmOR59 + Orco; assay type: cell-based
Description: (§1) In order to expand our analysis on the response properties of HarmORs, we conducted dose–response analyses for the 28 functional HarmORs. […] Six HarmORs (OR3, 22, 48, 50, 56, and 66) could not be activated by any ligand at 10^−5 M. For the other 22 HarmORs, dose–response curves were generated and EC50 values of their major ligands were calculated (fig. 2A and supplementary table S2, Supplementary Material online). The HarmOR repertoire was highly efficient in terpene detection, since the lowest EC50 values were obtained for such compounds. Many of these terpenes have been proposed to be defensive chemicals of plants. […] DMNT is also one of the oviposition deterring compounds found in larval frass of some Lepidoptera species such as S. littoralis ([Anderson et al. 1993]).
(§2) Functional characterization of individual ORs was performed by heterologous expression in Xenopus oocytes combined with a two-electrode voltage-clamp system ([Wang et al. 2010]). Briefly, the full-length gene of each OR and Orco were subcloned into the eukaryotic expression vector pT7TS. cRNAs were generated from linearized expression vectors using the mMESSAGE mMACHINE T7 kit (Ambion, Austin, TX). Then, the cRNA mixture of ORx and Orco (27.6 ng each) was injected (Nanoliter 2010, WPI Inc., Sarasota, FL) into oocytes (stage V–VII). The respective Orcos of different species were used for functional studies of OR42 orthologs except for the four butterfly species (V. tameamea, P. xuthus, D. plexippus, and P. rapae), in which we used the Orco from P. xuthus. After incubation in nutrient solution at 18 °C for 3–5 days, the response profile of each oocyte to multiple plant odorants was recorded via a two-electrode voltage clamp (OC-725C oocyte clamp, Warner Instruments, Hamden, CT) at a holding potential of −80 mV. Data were acquired by using a Digidata 1440 A and were analyzed by pCLAMP 10.2 software (Axon Instruments Inc., Union City, CA).
(§3) Stock solutions of each odorant were prepared at 1 M using DMSO as a solvent, and each odorant was diluted in 1× Ringer’s solution to the indicated concentrations for electrophysiological recording. For functional screening of each HarmOR, a panel of 67 odorants belonging to three types of chemical classes: terpenes, aromatics, and aliphatics (short-chain fatty acid) were used (supplementary table S1, Supplementary Material online). For functional studies of OR42 orthologs from different species, six odorants including PAA, benzaldehyde, (E)-2-hexen-1-al, cinnamaldehyde, 2-phenylethanol, and heptanal were used.

HarmOR repertoire = experiment: Responses of the 28 functional HarmORs across odorant doses (PCA of oocyte currents); assay type: cell-based, Helicoverpa armigera; conditions: odorant 10^−7 M
Description: Vectors quantifying the responses of the 28 ORs to each odorant were projected onto a 3D landscape. This 3D representation captured 78.34% (10^−4 M), 65.11% (10^−5 M), 68.89% (10^−6 M), and 84.52% (10^−7 M) of the variation in the original 28D data set across different odorant concentrations. […] In addition, the capacity of the H. armigera odor space was highly dependent on odorant concentration. As the concentrations of odorants decreased, their positions in the odor space converged, with the ability to discriminate different odorants diminishing.
as §2, §3
Graphs and data statistics of OR response spectra, dose responses, EAG, and behavioral experiments were generated by Prism 7 (GraphPad Software, La Jolla, CA). A heat map was generated in Excel 2010 (Microsoft Corporation, WA). […] For tuning breadth analysis, the kurtosis values (K) were calculated by SPSS 22 (SPSS Inc., Chicago, IL) and were used to define the tuning spectra width, where smaller K values represent broader tuning spectra (fig. 1B). […]

HarmOR42 = HarmOR42 (Helicoverpa armigera, UniProt A0A7T3KAF6); experiment: Xenopus oocyte two-electrode voltage clamp, HarmOR42 + Orco; assay type: cell-based; conditions: 67 odorants at 10^−4 M
Description: In preliminary screening, we used a high dosage (10^−4 M) of odorants. […] Most functional ORs responded robustly to multiple odorants. The strongest response (up to ∼6,000 nanoampere, nA) we detected was that of HarmOR42 toward the aromatic compound PAA. Further, the response profiles of the 28 HarmORs appeared to be highly differentiated, with no apparent overlap in their tuning spectra (with the exception of HarmOR12 and 36) according to functional cluster analysis (fig. 1A).
as §1, §2, §3

HarmOR36 = HarmOR36 (Helicoverpa armigera, UniProt A0A7T3N0K7); experiment: Xenopus oocyte two-electrode voltage clamp, HarmOR36 + Orco; assay type: cell-based; conditions: dose response in oocytes, unit M
Description: as §1, §2, §3

HarmOR52 = HarmOR52 (Helicoverpa armigera, UniProt A0A7T3KAH2); experiment: Xenopus oocyte two-electrode voltage clamp, HarmOR52 + Orco; assay type: cell-based
Description: as §1, §2, §3

HarmOR12 = HarmOR12 (Helicoverpa armigera, UniProt A0A172QGF5); experiment: Xenopus oocyte two-electrode voltage clamp, HarmOR12 + Orco; assay type: cell-based
Description: (§4) In order to expand our analysis on the response properties of HarmORs, we conducted dose–response analyses for the 28 functional HarmORs. […] Many of these terpenes have been proposed to be defensive chemicals of plants.
(§5) Briefly, the full-length gene of each OR and Orco were subcloned into the eukaryotic expression vector pT7TS. cRNAs were generated from linearized expression vectors using the mMESSAGE mMACHINE T7 kit (Ambion, Austin, TX). […] The respective Orcos of different species were used for functional studies of OR42 orthologs except for the four butterfly species (V. tameamea, P. xuthus, D. plexippus, and P. rapae), in which we used the Orco from P. xuthus.
as §3

HarmOR31 = HarmOR31 (Helicoverpa armigera, UniProt A0A7T3N2E9); experiment: Xenopus oocyte two-electrode voltage clamp, HarmOR31 + Orco; assay type: cell-based; conditions: HarmOR31; dose response in oocytes; unit M; read-out: EC50
Description: as §4, §5, §3

HarmOR40 = target: T1, HarmOR40 (Helicoverpa armigera, UniProt A0A7T3KBF4); experiment: Xenopus oocyte two-electrode voltage clamp, HarmOR40 + Orco; assay type: cell-based
T1 sequence (A0A7T3KBF4 1-401): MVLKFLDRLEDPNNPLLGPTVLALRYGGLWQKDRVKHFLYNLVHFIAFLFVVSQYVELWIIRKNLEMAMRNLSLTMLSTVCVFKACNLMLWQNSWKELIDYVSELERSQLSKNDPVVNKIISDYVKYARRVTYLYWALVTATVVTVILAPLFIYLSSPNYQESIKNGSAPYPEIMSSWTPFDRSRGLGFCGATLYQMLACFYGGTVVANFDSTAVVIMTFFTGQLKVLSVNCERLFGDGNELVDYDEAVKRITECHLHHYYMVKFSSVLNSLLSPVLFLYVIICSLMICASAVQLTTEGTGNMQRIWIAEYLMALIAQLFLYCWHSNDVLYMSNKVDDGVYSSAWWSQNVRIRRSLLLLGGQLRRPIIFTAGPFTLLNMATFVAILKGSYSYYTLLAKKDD
Description: as §1, §2, §3

HarmOR23 = HarmOR23 (Helicoverpa armigera, UniProt A0A7T3KAE3); experiment: Xenopus oocyte two-electrode voltage clamp, HarmOR23 + Orco; assay type: cell-based; conditions: dose response in oocytes, unit M printed in text only
Description: as §1
as §2, with “CA). […]” for “CA).”

HarmOR27 = target: T2, HarmOR27 (Helicoverpa armigera, UniProt A0A7T3KAG1); experiment: Xenopus oocyte two-electrode voltage clamp, HarmOR27 + Orco; assay type: cell-based; conditions: HarmOR27; dose response in oocytes; unit M; read-out: EC50
T2 sequence (A0A7T3KAG1 1-426): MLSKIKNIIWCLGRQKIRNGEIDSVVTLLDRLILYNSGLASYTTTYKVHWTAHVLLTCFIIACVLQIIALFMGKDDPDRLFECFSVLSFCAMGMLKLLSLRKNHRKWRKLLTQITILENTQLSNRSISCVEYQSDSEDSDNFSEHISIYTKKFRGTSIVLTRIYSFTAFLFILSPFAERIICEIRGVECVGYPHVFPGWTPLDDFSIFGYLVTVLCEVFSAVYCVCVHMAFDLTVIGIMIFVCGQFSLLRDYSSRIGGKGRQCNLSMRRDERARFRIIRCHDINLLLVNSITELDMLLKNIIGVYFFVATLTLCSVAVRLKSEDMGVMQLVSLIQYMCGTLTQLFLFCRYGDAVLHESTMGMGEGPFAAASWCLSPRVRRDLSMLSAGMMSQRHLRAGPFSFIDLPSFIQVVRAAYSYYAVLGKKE
Description: as §1, §2, §3

[2] = HarmOR59, dose response in oocytes, unit M, read-out: EC50
[3] = HarmOR12, dose response in oocytes, unit M, read-out: EC50
[4] = HarmOR40, dose response in oocytes, unit M printed in text only, read-out: EC50

HarmOR31, sequence (A0A7T3N2E9 entry or part of it): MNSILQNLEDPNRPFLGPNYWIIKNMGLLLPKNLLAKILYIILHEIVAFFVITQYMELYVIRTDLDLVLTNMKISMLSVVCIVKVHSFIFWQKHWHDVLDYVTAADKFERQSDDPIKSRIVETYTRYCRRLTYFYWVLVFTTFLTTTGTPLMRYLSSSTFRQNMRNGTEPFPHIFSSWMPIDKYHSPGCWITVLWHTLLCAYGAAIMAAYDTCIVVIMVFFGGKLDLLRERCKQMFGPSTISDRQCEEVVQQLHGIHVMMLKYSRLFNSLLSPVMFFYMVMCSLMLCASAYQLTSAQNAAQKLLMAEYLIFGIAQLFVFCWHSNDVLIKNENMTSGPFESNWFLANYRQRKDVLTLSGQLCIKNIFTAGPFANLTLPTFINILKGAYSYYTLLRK
HarmOR12, sequence (A0A172QGF5 entry or part of it): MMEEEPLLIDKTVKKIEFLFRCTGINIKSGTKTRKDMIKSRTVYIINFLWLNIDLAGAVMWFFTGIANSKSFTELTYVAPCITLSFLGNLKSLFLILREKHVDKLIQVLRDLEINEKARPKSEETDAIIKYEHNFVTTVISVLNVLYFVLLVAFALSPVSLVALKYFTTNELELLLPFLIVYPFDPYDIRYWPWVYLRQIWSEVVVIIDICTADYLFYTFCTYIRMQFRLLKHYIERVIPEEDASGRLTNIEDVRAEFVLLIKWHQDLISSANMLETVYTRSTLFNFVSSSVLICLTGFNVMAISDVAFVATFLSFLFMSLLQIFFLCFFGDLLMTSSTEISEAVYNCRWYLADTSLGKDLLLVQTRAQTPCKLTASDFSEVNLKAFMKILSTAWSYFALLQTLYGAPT
HarmOR59, sequence (A0A7T3KAU6 entry or part of it): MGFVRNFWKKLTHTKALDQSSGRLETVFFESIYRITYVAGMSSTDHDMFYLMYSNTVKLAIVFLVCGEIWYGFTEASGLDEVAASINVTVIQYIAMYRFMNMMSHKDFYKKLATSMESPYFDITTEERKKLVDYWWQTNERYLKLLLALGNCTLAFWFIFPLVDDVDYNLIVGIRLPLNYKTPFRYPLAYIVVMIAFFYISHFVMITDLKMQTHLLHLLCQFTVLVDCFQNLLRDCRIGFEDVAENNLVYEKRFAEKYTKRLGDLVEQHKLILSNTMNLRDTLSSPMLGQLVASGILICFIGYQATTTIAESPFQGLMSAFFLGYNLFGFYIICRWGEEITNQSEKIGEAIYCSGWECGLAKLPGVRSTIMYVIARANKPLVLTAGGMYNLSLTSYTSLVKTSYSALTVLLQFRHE
HarmOR36, sequence (A0A7T3N0K7 entry or part of it): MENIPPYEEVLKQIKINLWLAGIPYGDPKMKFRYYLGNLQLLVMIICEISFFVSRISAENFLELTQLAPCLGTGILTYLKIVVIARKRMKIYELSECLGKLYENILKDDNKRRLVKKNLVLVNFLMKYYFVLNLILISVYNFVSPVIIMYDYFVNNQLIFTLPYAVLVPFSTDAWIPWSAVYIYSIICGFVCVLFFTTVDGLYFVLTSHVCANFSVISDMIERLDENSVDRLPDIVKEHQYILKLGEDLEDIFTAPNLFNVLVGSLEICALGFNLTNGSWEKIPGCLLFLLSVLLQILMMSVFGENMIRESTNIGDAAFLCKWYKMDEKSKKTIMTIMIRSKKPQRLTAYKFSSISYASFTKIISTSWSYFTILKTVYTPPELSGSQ
HarmOR23, sequence (A0A7T3KAE3 entry or part of it): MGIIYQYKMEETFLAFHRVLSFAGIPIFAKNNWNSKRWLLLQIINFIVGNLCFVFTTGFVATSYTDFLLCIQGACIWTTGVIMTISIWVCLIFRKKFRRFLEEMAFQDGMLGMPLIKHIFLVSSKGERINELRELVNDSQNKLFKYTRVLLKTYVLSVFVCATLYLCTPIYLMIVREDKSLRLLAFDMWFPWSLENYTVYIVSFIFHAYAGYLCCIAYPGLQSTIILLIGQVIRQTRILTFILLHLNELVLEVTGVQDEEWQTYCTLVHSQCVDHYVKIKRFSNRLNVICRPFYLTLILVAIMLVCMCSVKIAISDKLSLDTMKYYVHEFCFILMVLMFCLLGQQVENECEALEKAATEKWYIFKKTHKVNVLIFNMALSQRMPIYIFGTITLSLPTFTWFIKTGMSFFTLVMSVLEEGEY
HarmOR52, sequence (A0A7T3KAH2 entry or part of it): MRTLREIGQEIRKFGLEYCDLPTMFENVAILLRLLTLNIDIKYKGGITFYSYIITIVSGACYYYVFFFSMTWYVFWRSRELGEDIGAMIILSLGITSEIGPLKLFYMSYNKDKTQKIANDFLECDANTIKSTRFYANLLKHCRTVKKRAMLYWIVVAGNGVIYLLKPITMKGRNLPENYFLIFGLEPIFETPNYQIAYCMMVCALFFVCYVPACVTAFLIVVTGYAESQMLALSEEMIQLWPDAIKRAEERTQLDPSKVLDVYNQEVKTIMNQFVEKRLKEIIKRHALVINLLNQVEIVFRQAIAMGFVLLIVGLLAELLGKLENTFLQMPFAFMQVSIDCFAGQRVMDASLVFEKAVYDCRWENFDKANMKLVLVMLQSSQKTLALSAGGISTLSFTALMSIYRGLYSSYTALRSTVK
HarmOR42, sequence (A0A7T3KAF6 entry or part of it): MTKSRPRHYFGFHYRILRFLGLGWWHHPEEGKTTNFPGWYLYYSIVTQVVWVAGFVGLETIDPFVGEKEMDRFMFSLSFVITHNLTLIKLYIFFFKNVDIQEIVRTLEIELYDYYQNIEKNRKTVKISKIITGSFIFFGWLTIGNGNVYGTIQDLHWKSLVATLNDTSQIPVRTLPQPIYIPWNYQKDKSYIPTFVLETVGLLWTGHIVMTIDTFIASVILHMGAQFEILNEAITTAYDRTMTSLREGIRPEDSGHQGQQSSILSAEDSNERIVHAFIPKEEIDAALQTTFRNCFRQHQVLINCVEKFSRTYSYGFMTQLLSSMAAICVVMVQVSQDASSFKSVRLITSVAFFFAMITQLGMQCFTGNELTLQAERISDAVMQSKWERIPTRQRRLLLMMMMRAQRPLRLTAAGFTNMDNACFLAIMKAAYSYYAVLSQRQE

OCCc1ccccc1 [2-Phenylethanol]
EAG response of HarmOR42 knock-out mutants compared with wild-type moths [1]: no significant difference
EC50 (HarmOR59; [2]): 2.91 µM
response of the HarmOR repertoire (HarmOR repertoire): still responded
ligand tuning of HarmOR42 (HarmOR42): minor ligand

CCC(C)(O)CCCC(C)C (stereo not drawn) [3,7-Dimethyl-3-octanol]
EC50 (HarmOR36; HarmOR36, read-out: EC50): 2.91 µM

CCc1ccc(C=O)cc1 [4-Ethylbenzaldehyde]
EC50 (HarmOR59; [2]): 1190 µM

CC1(C)[C@H]2CC=C(CO)[C@@H]1C2 [(1R)-(-)-Myrtenol]
EC50 (HarmOR52; HarmOR52, dose response in oocytes, unit M, read-out: EC50): 17.1 µM

C=C[C@](C)(O)CCC=C(C)C [(-)-Linalool]
EC50 (HarmOR12; [3]): 13.7 µM
EC50 (HarmOR36; HarmOR36, read-out: EC50): 1.14 µM

CCC/C=C/C=O [(E)-2-Hexen-1-al]
EC50 (HarmOR59): 3780 µM

CCC/C=C/CO [(E)-2-Hexen-1-ol]
EC50 (HarmOR59): 1190 µM
EC50 (HarmOR52): 24 µM

CCC/C=C/COC(C)=O [(E)-2-Hexenyl acetate]
EC50 (HarmOR31): 5.02 µM

CCC/C=C\CO [(Z)-2-Hexen-1-ol]
EC50 (HarmOR52): 16.5 µM

CC/C=C\CCOC(C)=O [(Z)-3-Hexenyl acetate]
EC50 (HarmOR31): 7.51 µM

CC/C=C\CCO [(Z)-3-hexen-1-ol]
EC50 (HarmOR59): 1860 µM
EC50 (HarmOR52): 23.3 µM

OCc1ccccc1 [Benzyl alcohol]
EC50 (HarmOR52): 6.87 µM

CC(C)=CCC/C(C)=C/CO [Geraniol]
EC50 (HarmOR40): 27.8 µM
EC50 (HarmOR12): 27.6 µM

CC(=O)OC/C=C(\C)CCC=C(C)C [Geranyl acetate]
EC50 (HarmOR23): 5.1 µM
EC50 (HarmOR40; [4]): 7.69 µM

C=CC(C)(O)CCC=C(C)C (stereo not drawn) [Linalool]
response of the HarmOR repertoire (HarmOR repertoire): still responded
EC50 (HarmOR12): 21.2 µM
EC50 (HarmOR36; EC50, HarmOR36): 1.16 µM

CCCC/C=C\CCCCCCCCCC=O [Z11-16: Ald]
EAG response of HarmOR42 knock-out mutants compared with wild-type moths [1]: no difference
ligand tuning of HarmOR42 (HarmOR42): not a ligand

CC/C=C\CC1=C(C)CCC1=O [cis-Jasmone]
EC50 (HarmOR27): 78.6 µM

CC(C)=CCCC(C)CCO (stereo not drawn) [β-Citronellol]
EC50 (HarmOR12; [3]): 80.1 µM
EC50 (HarmOR36; HarmOR36, read-out: EC50): 4.68 µM

CCCCCC1CCCC(=O)O1 (stereo not drawn) [δ-Decanolactone]
EC50 (HarmOR31): 8.16 µM

(±)-Citronellal
EC50 (HarmOR27): 333 µM

Farnesene
EC50 (HarmOR23): 4.79 µM
EC50 (HarmOR23; listed as farnesene): < 10 µM
EC50 (HarmOR40; HarmOR40, dose response in oocytes, unit M printed in text only, listed as farnesene, read-out: EC50): < 10 µM
EC50 (HarmOR40; [4]): 7.9 µM
